Measurements from patent US9095524B2, “Customized compositions and uses thereof” (Bond University Ltd., priority 2011, dated 2015).

Tested on: HMSCs
Assay: Calcium deposition (osteogenic differentiation) with purmorphamine
Type: cell-based, human
Details: 2 μM purmorphamine added directly into differentiation media, hMSCs on polystyrene culture plate (PS)

With c1ccc2c(Oc3nc(Nc4ccc(N5CCOCC5)cc4)c4ncn(C5CCCCC5)c4n3)cccc2c1 [purmorphamine] as the compound, how does the calcium deposition read?
Its calcium deposition is “significant increase in calcium deposition”.
